Measurements: patent EP4755881A1 (Wuhan Createrna Science and Technology Co., Ltd., priority 2023, dated 2025)

Target: T1, LPAR1 receptor (Homo sapiens, UniProt Q92633)
T1 construct: expressed in transfected cells
Assay: LPAR1 in vitro biological activity evaluation 2: HTRF cAMP kit (LANCE Ultra cAMP Kit) assay in CHO stable transfected cell line expressing the LPAR1 receptor
Type: cell-based
Conditions: Table 2, read-out: LPAR1 inhibitory activity IC50
Method: The inhibitory effects of the compounds of the present disclosure on the LPAR1 receptor were determined using a Chinese hamster ovary (CHO) stable transfected cell line expressing the LPAR1 receptor, through the HTRF cAMP kit (LANCE® Ultra cAMP Kit).
The CHO cell line expressing the LPAR1 receptor was cultured in F-12 medium (Gibco, 117650054) containing 10% fetal bovine serum (FBS, Avantor, 76294-180) and 0.2 mg/mL hygromycin B (Solarbio, H8080-1g) at 37°C with 5% CO2. Cell passage, recovery, and cryopreservation were performed according to conventional methods. The stable transfected cell line was cultured to 80% confluence, digested with trypsin to collect cells, counted, and then seeded at 5 µL/well in a 384-well plate (500 cells/5 µL). The 1× Stimulation Buffer was prepared according to the instructions of the kit (LANCE® Ultra cAMP Kit). 1 µL of the test compound solution (diluted to 10× with 1× Stimulation Buffer) was added to the corresponding experimental wells, followed by centrifugation and incubation at 37°C for 10 minutes. […] 5 µL/well of Eu-cAMP (diluted with Detection buffer) was added to the corresponding experimental wells. 5 µL/well of ULight™-anti-cAMP antibody (diluted with Detection buffer) was added to the corresponding experimental wells, followed by centrifugation and incubation at room temperature for 1 hour. After the incubation was completed, the readings at 665 nm and 620 nm under 330 nm excitation were detected using the HTS high-throughput drug screening multifunctional microplate reader (BMG, PHERAstar FSX). The IC50 values were calculated by fitting nonlinear regression (dose response - variable slope) using GraphPad Prism software.

T1 sequence (Q92633 whole entry): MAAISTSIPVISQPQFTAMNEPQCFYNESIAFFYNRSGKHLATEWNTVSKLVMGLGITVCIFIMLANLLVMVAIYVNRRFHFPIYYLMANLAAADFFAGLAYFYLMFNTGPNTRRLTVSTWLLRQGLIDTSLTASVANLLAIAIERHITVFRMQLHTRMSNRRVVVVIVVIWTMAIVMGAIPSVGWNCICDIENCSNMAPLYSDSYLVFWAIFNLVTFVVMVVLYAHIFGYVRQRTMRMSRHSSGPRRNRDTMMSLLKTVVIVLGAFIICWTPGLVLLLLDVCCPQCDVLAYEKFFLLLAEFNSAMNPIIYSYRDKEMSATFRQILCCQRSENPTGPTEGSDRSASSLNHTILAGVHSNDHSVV

SMILES	IC50 [nM]
CCC(F)(F)[C@@H](C)OC(=O)Nc1c(C)noc1-c1ccc(C#CC2(CC(=O)O)CC(OC)C2)c(Cl)n1 (stereo partly drawn) [compound 471]	33.6
Cc1nc(-c2nnn(C)c2NC(=O)OC(C)C23CC(C2)C3)ccc1C#C[C@@H]1CC[C@H]1C(=O)O (stereo partly drawn) [compound 296]	83.8
Cc1nc(-c2nnn(C)c2NC(=O)O[C@H](C)c2ccccc2)ccc1C#C[C@@H]1CCC[C@H]1C(=O)O [compound 402]	47.2
CCC(F)(F)[C@@H](C)OC(=O)Nc1c(C)noc1-c1ccc(C#CC2(CC(=O)O)CC2)c(CF)n1 [compound 335]	113
CCC(F)(F)[C@@H](C)OC(=O)Nc1c(-c2ccc(C#Cc3cc(C(F)(F)F)ncc3C(=O)O)c(C)n2)nnn1C [compound 513]	26.5
CCC(F)(F)[C@@H](C)OC(=O)Nc1c(-c2ccc(C#CC3(CC(=O)O)CCC3)c(C)n2)nnn1C [compound 323]	14.8
CCOc1ccnc(NCc2c(-c3ccc(C#CC4(CC(=O)O)CC4)c(C)n3)nnn2C)n1 [compound 118]	83.9
Cc1nc(-c2nnn(C)c2NC(=O)O[C@H](C)C23CC(C2)C3)ccc1C#CC1(CC(=O)O)CC(F)(F)C1 [compound 432]	16.6
CCC(F)(F)[C@@H](C)OC(=O)Nc1c(C)noc1-c1ccc(C#C[C@@H]2CC[C@H]2C(=O)O)c(C)n1 [compound 486]	34.1

Further compounds by falling IC50, results first:

IC50 [nM]	SMILES
205	CCCN(C)C(=O)OCc1c(-c2ccc(C#CC3(CC(=O)O)CC3)c(C(F)(F)F)n2)nnn1C [compound 101]
195	Cc1nc(-c2nnn(C)c2NC(=O)OC(C)C23CC(C2)C3)ccc1C#C[C@@H]1C[C@H]1C(=O)O (stereo partly drawn) [compound 294]
117	Cc1nc(-c2nnn(C)c2NC(=O)O[C@H](C)c2ccccc2Cl)ccc1C#C[C@@H]1C[C@H]1C(=O)O [compound 053]
87.6	Cc1nc(-c2nnn(C)c2COC(=O)N(C)CCC(C)(F)F)ccc1C#C[C@@H]1CCC[C@H]1C(=O)O (single isomer, unassigned) [282-A]
83.9	Cc1nc(-c2onc(C)c2NC(=O)O[C@H](C)CC(C)(F)F)ccc1C#C[C@@H]1CC[C@H]1C(=O)O [compound 340]
27.1	CCC(F)(F)[C@@H](C)OC(=O)Nc1c(-c2ccc(C#CC3(CC(=O)O)CC(OC)C3)c(F)n2)noc1C (stereo partly drawn) [compound 491]
25.5	COC1CC(C#Cc2ccc(-c3nnn(C)c3NC(=O)O[C@H](C)c3ccccc3F)nc2C)(CC(=O)O)C1 (stereo partly drawn) [compound 466]
13.6	Cc1nc(-c2nnn(C)c2NC(=O)O[C@H](C)CC(C)C)ccc1C#C[C@@H]1CC(F)(F)C[C@H]1C(=O)O [compound 299]
6	C[C@H](CC(C)(F)F)OC(=O)Nc1c(-c2ccc(C#CC3(CC(=O)O)CC4(CC4)C3)c(C(F)(F)F)n2)nnn1C [compound 498]
